Laboratory results taken from patent US6770673B1, “Therapeutic uses of arglabin in combination with other chemotherapy agents” (priority 1997, dated 2004).

What was measured:
Worker's carcinosarcoma = experiment: Inhibition of tumor growth in implanted tumors; format: in vivo, mice and rats
[1] = test system: Alveolar Cancer of the liver; experiment: Inhibition of tumor growth in implanted tumors; format: in vivo, mice and rats
M-1 Sarcoma = experiment: Inhibition of tumor growth in implanted tumors; format: in vivo, mice and rats
Geren's carcinosarcoma = experiment: Inhibition of tumor growth in implanted tumors; format: in vivo, mice and rats
Sarcoma-45 = experiment: Inhibition of tumor growth in implanted tumors; format: in vivo, rats
Pliss lymphosarcoma = experiment: Inhibition of tumor growth in implanted tumors; format: in vivo, rats
[2] = test system: Pliss Lymphosarcoma resistant to prospidine; experiment: Inhibition of growth of resistant tumour strains; duration of life and metastasis; format: in vivo, rats
[3] = test system: Sarcoma-45 resistant to 5-fluorouracil; experiment: Inhibition of growth of resistant tumour strains; format: in vivo, rats
PC-1 = experiment: Inhibition of tumor growth in implanted tumors; format: in vivo, mice and rats; settings: dose 30 mg/kg
immune system = experiment: Indices of patients' immunity, rozette forming and phagocytosis methods (Table X); format: in vivo, human
Procedure: The indices of immune system were determined using rozette forming and phagocytosis methods. […] Eleven indices of cellular and humoral immunity were measured from each patient in order to evaluate immune status. The following indices were determined on 0.05 ml of peripheral blood: absolute and relative amount of T- and B-lymphocytes, amount of non-differentiated “zero” cells, adhesion and phagocyte activity of neutrophils, hemogram, level of serum immunoglobulins. Indices were determined before treatment, on days 2, 5 and 14 of treatment, and after treatment.
Mean values of immunological indices were evaluated with regression analysis. Functional conditions of the immune system were estimated using integral indices such as a mean intensity (correlation) expressed in relative units.

[4] = test system: Pliss Lymphosarcoma resistant to rubidomycin; experiment: Inhibition of growth of resistant tumour strains; format: in vivo, rats; settings: dose 30 mg/kg
Leucemia P-388 = experiment: Implanted leukemia, inhibition / survival; format: in vivo, mice and rats
L-1210 = experiment: Implanted leukemia, survival; format: in vivo, mice and rats; settings: dose 30 mg/kg
[5] = test system: Sarcoma-45 resistant to sarcolysin; experiment: Inhibition of growth of resistant tumour strains; format: in vivo, rats; settings: dose 30 mg/kg
Sarcoma-37 = experiment: Inhibition of tumor growth in implanted tumors; format: in vivo, mice and rats; settings: dose 2 mg/kg
[6] = test system: Pliss Lymphosarcoma resistant to leucoeffdine; experiment: Inhibition of growth of resistant tumour strains; tumor disappearance; format: in vivo, rats; settings: leukofedin resistant Pliss' lymphosarcoma, collateral sensitivity

CC1=CCC23OC2(C)CCC2C(C)C(=O)OC2C13 (stereo not shown) [11,13-dihydroarglabin (16), 11,13 dihydroarglabin]
Inhibition of Tumour Growth, % - Worker's carcinosarcoma (Worker's carcinosarcoma; dose 30 mg/kg): 46.4% | Inhibition of Tumour Growth, % - Alveolar Cancer of the liver ([1]; dose 30 mg/kg): 68.7% | Inhibition of Tumour Growth, % - M-1 Sarcoma (M-1 Sarcoma; dose 30 mg/kg): 65.5% | Inhibition of Tumour Growth, % - Geren's carcinosarcoma (Geren's carcinosarcoma; dose 30 mg/kg): 84.4% | Inhibition of Tumour Growth, % - Sarcoma-45 (Sarcoma-45; dose 30 mg/kg): 64.1% | Inhibition of Tumour Growth, % - Pliss lymphosarcoma (Pliss lymphosarcoma; dose 30 mg/kg): 68.0%

C=C1C(=O)OC2C1CCC(C)(O)C1C3OC3C(C)(O)C21 (stereo not drawn) [Anobin (19), 2α,3α-epoxy-4α,10α-dioxy-5,7α(H), 60β(H)-guai-11(13)-en-6,12-olide]
Inhibition of Tumour Strains Growth, % - Resistant Forms - Pliss Lymphosarcoma to prospidine ([2]; dose 20-30 mg/kg): 95% | Inhibition of Tumour Strains Growth, % - Resistant Forms - Sarcoma-45 to 5-fluorouracil ([3]; dose 20-30 mg/kg): 13.2% | Inhibition of Tumour Growth, % - Geren's carcinosarcoma (Geren's carcinosarcoma; dose 20-30 mg/kg): 85% | Inhibition of Tumour Growth, % - Pliss lymphosarcoma (Pliss lymphosarcoma; dose 20-30 mg/kg): 60.0%

C=C1C(=O)O[C@@H]2[C@H]3C(C)=CC[C@@]34O[C@@]4(C)CC[C@@H]12 [Arglabin (1), 1(R), 10(S)-epoxy-5(S), 6(S), 7(S)-guaia-3(4), 11(13)-diene-6,12-olide]
Inhibition of Tumour Growth, % - PC-1 (PC-1): 32.1% | Inhibition of Tumour Strains Growth, % - Resistant Forms - Pliss Lymphosarcoma to prospidine ([2]; dose 30 mg/kg): 31.0% | Adhesion, N/ph (immune system; human, in vivo): 42.40 ± 1.72 | Non differentiated lymphocytes, % (immune system; human, in vivo): 26.00 ± 2.21% | T-lymphocytes, % (immune system; human, in vivo): 52.00 ± 1.42% | Eosinophil (immune system; patients, hemogram, after treatment (before treatment 2.72 ± 0.71)): 3.35 ± 1.30 | Neutrophils, % (immune system; patients, hemogram, after treatment (before treatment 4.72 ± 0.91)): 5.45 ± 0.79% | Monocytes (immune system; patients, hemogram, after treatment (before treatment 5.28 ± 2.48)): 4.45 ± 0.44 | Lymphocytes (immune system; patients, hemogram, after treatment (before treatment 25.52 ± 2.02)): 23.15 ± 1.7 | Segmentation nucleus (immune system; patients, hemogram, after treatment (before treatment 61.68 ± 45.0)): 63.05 ± 1.79 | B-lymphocytes, absolute (immune system; patients, peripheral blood, after treatment (before treatment 0.29 ± 0.05)): 0.45 ± 0.07 | T-lymphocytes, absolute (immune system; patients, peripheral blood, after treatment (before treatment 0.72 ± 0.08)): 1.14 ± 0.17 | D-phag, abs (immune system; patients, peripheral blood, after treatment (before treatment 1.69 ± 0.26)): 2.32 ± 0.19 | Leukocytes, 10^9/l (immune system; patients, peripheral blood, after treatment (before treatment 5.97 ± 0.60)): 9.14 ± 0.61 10^9/l | T suppressor, % (immune system; patients, peripheral blood, after treatment (before treatment 10.48 ± 1.60)): 10.50 ± 0.95% | B-lymphocytes, % (immune system; patients, peripheral blood, after treatment (before treatment 19.12 ± 1.02)): 18.50 ± 10.0% | T helper cells, % (immune system; patients, peripheral blood, after treatment (before treatment 39.12 ± 1.25)): 45.30 ± 1.26% | D-phag., % (immune system; patients, peripheral blood, after treatment (before treatment 41.36 ± 0.95)): 48.1 ± 0.93% | Immunoglobulins M (immune system; patients, serum, after treatment (before treatment 1.36 ± 0.03)): 1.53 ± 0.03 g/L | Immunoglobulins A (immune system; patients, serum, after treatment (before treatment 1.48 ± 0.02)): 1.97 ± 0.08 g/L | Immunoglobulins G (immune system; patients, serum, after treatment (before treatment 14.33 ± 0.43)): 17.91 ± 0.41 g/L | Inhibition of Tumour Growth, % - Worker's carcinosarcoma (Worker's carcinosarcoma; dose 30 mg/kg): 41.1% | Inhibition of Tumour Strains Growth, % - Resistant Forms - Pliss Lymphosarcoma to rubidomycin [4]: 44.1% | Inhibition of Tumour Growth, % - Alveolar Cancer of the liver ([1]; dose 30 mg/kg): 32.1% | Inhibition of Tumour Growth, % - M-1 Sarcoma (M-1 Sarcoma; dose 30 mg/kg): 55.6% | Inhibition of Tumour Growth, % - Geren's carcinosarcoma (Geren's carcinosarcoma; dose 30 mg/kg): 48.0% | Inhibition of Tumour Growth, % - Sarcoma-45 (Sarcoma-45; dose 30 mg/kg): 23.0% | Leucemia P-388 PALT - increase in survival (Leucemia P-388; dose 30 mg/kg): +43.0% | L-1210 - increase in survival (L-1210): +34.1% | Inhibition of Tumour Strains Growth, % - Resistant Forms - Sarcoma-45 to sarcolysin [5]: 59.7% | Inhibition of Tumour Growth, % - Pliss lymphosarcoma (Pliss lymphosarcoma; dose 30 mg/kg): 57.6%

COc1cc2c(c(OC)c1OC)-c1ccc(OC)c(=O)cc1[C@@H](NC(C)=O)CC2 [Colchicine, colchicine, reference compound]
Inhibition of Tumour Growth, % - Sarcoma-37 (Sarcoma-37): 36.7% | Inhibition of Tumour Growth, % - Worker's carcinosarcoma (Worker's carcinosarcoma; dose 2 mg/kg): 30.1% | Inhibition of Tumour Growth, % - Alveolar Cancer of the liver ([1]; dose 2 mg/kg): 29.1% | Inhibition of Tumour Growth, % - M-1 Sarcoma (M-1 Sarcoma; dose 2 mg/kg): 14.9% | Inhibition of Tumour Growth, % - Geren's carcinosarcoma (Geren's carcinosarcoma; dose 2 mg/kg): 32.4% | Inhibition of Tumour Growth, % - Sarcoma-45 (Sarcoma-45; dose 2 mg/kg): 23.4% | Inhibition of Tumour Growth, % - Leucemia P-388 PALT (Leucemia P-388; dose 2 mg/kg): 31.2% | Inhibition of Tumour Growth, % - Pliss lymphosarcoma (Pliss lymphosarcoma; dose 2 mg/kg): 54.4%

C=C1C(=O)OC2C1CCC1(C)OC13CC(Br)C(C)(Br)C23 (stereo not shown) [Dibromoarglabin (5), 3,4 Dibromoarglabin]
Inhibition of Tumour Growth, % - Worker's carcinosarcoma (Worker's carcinosarcoma; dose 50 mg/kg): 17.1% | Inhibition of Tumour Strains Growth, % - Resistant Forms - Sarcoma-45 to 5-fluorouracil ([3]; dose 50 mg/kg): 46.3% | Inhibition of Tumour Growth, % - Alveolar Cancer of the liver ([1]; dose 50 mg/kg): 69.0% | Inhibition of Tumour Growth, % - Geren's carcinosarcoma (Geren's carcinosarcoma; dose 50 mg/kg): 90.0% | Inhibition of Tumour Growth, % - Sarcoma-45 (Sarcoma-45; dose 50 mg/kg): 74.2% | Inhibition of Tumour Growth, % - Leucemia P-388 PALT (Leucemia P-388; dose 50 mg/kg): 46.9% | Inhibition of Tumour Growth, % - Pliss lymphosarcoma (Pliss lymphosarcoma; dose 50 mg/kg): 51.0%

C=C1C(=O)OC2C1CCC(C)(Cl)C1(O)CC(Cl)C(C)(O)C21 (stereo not shown) [Dichlordihydroxyarglabin (3)]
Inhibition of Tumour Growth, % - Worker's carcinosarcoma (Worker's carcinosarcoma; dose 50 mg/kg): 63.2% | Inhibition of Tumour Strains Growth, % - Resistant Forms - Sarcoma-45 to 5-fluorouracil ([3]; dose 50 mg/kg): 70.6% | Inhibition of Tumour Growth, % - Alveolar Cancer of the liver ([1]; dose 50 mg/kg): 51.0% | Inhibition of Tumour Growth, % - Geren's carcinosarcoma (Geren's carcinosarcoma; dose 50 mg/kg): 71.4% | Inhibition of Tumour Growth, % - Sarcoma-45 (Sarcoma-45; dose 50 mg/kg): 70.9% | Inhibition of Tumour Growth, % - Leucemia P-388 PALT (Leucemia P-388; dose 50 mg/kg): 92.1% | Inhibition of Tumour Growth, % - Pliss lymphosarcoma (Pliss lymphosarcoma; dose 50 mg/kg): 29.0%

CC1=CCC23OC2(C)CCC2C(CN(C)C)C(=O)OC2C13 (stereo not shown) [Dimethylaminoarglabin (14b), dimethylaminoarglabin]
Inhibition of Tumour Growth, % - PC-1 (PC-1): 62.1% | Inhibition of Tumour Strains Growth, % - Resistant Forms - Pliss Lymphosarcoma to prospidine ([2]; dose 30 mg/kg): 52.1% | Inhibition of Tumour Growth, % - Worker's carcinosarcoma (Worker's carcinosarcoma; dose 30 mg/kg): 30.0% | Inhibition of Tumour Growth, % - Worker's carcinosarcoma (Worker's carcinosarcoma; dose 50 mg/kg): 30.0% | Inhibition of Tumour Strains Growth, % - Resistant Forms - Sarcoma-45 to 5-fluorouracil ([3]; dose 50 mg/kg): 52.1% | Inhibition of Tumour Growth, % - Alveolar Cancer of the liver ([1]; dose 50 mg/kg): 42.0% | Inhibition of Tumour Growth, % - M-1 Sarcoma (M-1 Sarcoma; dose 30 mg/kg): 79.9% | Inhibition of Tumour Growth, % - Geren's carcinosarcoma (Geren's carcinosarcoma; dose 50 mg/kg): 85.1% | Inhibition of Tumour Growth, % - Sarcoma-45 (Sarcoma-45; dose 30 mg/kg): 85.1% | Inhibition of Tumour Growth, % - Sarcoma-45 (Sarcoma-45; dose 50 mg/kg): 79.0% | Inhibition of Tumour Growth, % - Leucemia P-388 PALT (Leucemia P-388; dose 50 mg/kg): 80.1% | Inhibition of Tumour Growth, % - Pliss lymphosarcoma (Pliss lymphosarcoma; dose 30 mg/kg): 78.2% | Inhibition of Tumour Growth, % - Pliss lymphosarcoma (Pliss lymphosarcoma; dose 50 mg/kg): 56.0%

CN(C)CC1C(=O)OC2C1CCC1(C)OC13CC1OC1(C)C23 (stereo not shown) [Dimethylaminoepoxyarglabin (15b), dimethylaminoepoxyarglabin]
Inhibition of Tumour Growth, % - Worker's carcinosarcoma (Worker's carcinosarcoma; dose 50 mg/kg): 43.1% | Inhibition of Tumour Strains Growth, % - Resistant Forms - Sarcoma-45 to 5-fluorouracil ([3]; dose 50 mg/kg): 11.2% | Inhibition of Tumour Growth, % - Alveolar Cancer of the liver ([1]; dose 50 mg/kg): 38.0% | Inhibition of Tumour Growth, % - Geren's carcinosarcoma (Geren's carcinosarcoma; dose 50 mg/kg): 31.4% | Inhibition of Tumour Growth, % - Sarcoma-45 (Sarcoma-45; dose 50 mg/kg): 58.1% | Inhibition of Tumour Growth, % - Leucemia P-388 PALT (Leucemia P-388; dose 50 mg/kg): 51.0% | Inhibition of Tumour Growth, % - Pliss lymphosarcoma (Pliss lymphosarcoma; dose 50 mg/kg): 64.6%

CN(C)CC1C(=O)OC2C1CCC1(C)OC13CC1OC1(C)C23.Cl (stereo not shown) [dimethylaminoepoxyarglabin hydrochloride]
Inhibition of Tumour Growth, % - Worker's carcinosarcoma (Worker's carcinosarcoma; dose 50 mg/kg): 51.4% | Inhibition of Tumour Strains Growth, % - Resistant Forms - Sarcoma-45 to 5-fluorouracil ([3]; dose 50 mg/kg): 13.2% | Inhibition of Tumour Growth, % - Alveolar Cancer of the liver ([1]; dose 50 mg/kg): 29.1% | Inhibition of Tumour Growth, % - Geren's carcinosarcoma (Geren's carcinosarcoma; dose 50 mg/kg): 15.6% | Inhibition of Tumour Growth, % - Sarcoma-45 (Sarcoma-45; dose 50 mg/kg): 32.4% | Inhibition of Tumour Growth, % - Leucemia P-388 PALT (Leucemia P-388; dose 50 mg/kg): 31.2% | Inhibition of Tumour Growth, % - Pliss lymphosarcoma (Pliss lymphosarcoma; dose 50 mg/kg): 47.0%

NC(Cc1ccc(N(CCCl)CCCl)cc1)C(=O)O (stereo not shown) [sarcolysin, reference compound]
rats with complete disappearance of the tumor [6]: 60%
